Assay results as given in PubChem BioAssay AID1918930 (Molecular Pharmacology Branch, DTP, NCI, 2023).
Several values for one entry are separate records, joined by “and”; a condition that tells them apart may be missing. Equal entries are not always repeated.

Test system: 233499-124-R-J3-PDC complex spheroid viability, % test/control
Assay: Anticancer human tumor 233499-124-R-J3-PDC patient-derived colon adenocarcinoma cell line growth inhibition
Conditions: for viability, T/C: stronger effect = lower value
In short: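 Multicellular complex spheroids of tumor cells with human endothelial cells (HUVEC) and mesenchymal stem cells; the LSD1 inhibitor iadademstat was combined with standard-of-care or investigational agents. Top concentration at or near clinical Cmax, half-log dilutions; final DMSO ≤0.25%.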

[1] = curve of first compound, second compound 0.1 µM
[2] = curve of first compound, second compound 0.316 µM
[3] = curve of first compound, second compound 1 µM
[4] = curve of first compound, second compound 3.16 µM
[5] = curve of first compound, second compound 10 µM
[6] = second compound 0.1 µM, first compound 0.000316 µM
[7] = second compound 0.1 µM, first compound 0.001 µM
[8] = second compound 0.1 µM, first compound 0.00316 µM
[9] = second compound 0.1 µM, first compound 0.01 µM
[10] = second compound 0.1 µM, first compound 0.0316 µM
[11] = second compound 0.1 µM, first compound 0.1 µM
[12] = second compound 0.316 µM, first compound 0.000316 µM
[13] = second compound 0.316 µM, first compound 0.001 µM
[14] = second compound 0.316 µM, first compound 0.00316 µM
[15] = second compound 0.316 µM, first compound 0.01 µM
[16] = second compound 0.316 µM, first compound 0.0316 µM
[17] = second compound 0.316 µM, first compound 0.1 µM
[18] = second compound 1 µM, first compound 0.000316 µM
[19] = second compound 1 µM, first compound 0.001 µM
[20] = second compound 1 µM, first compound 0.00316 µM
[21] = second compound 1 µM, first compound 0.01 µM
[22] = second compound 1 µM, first compound 0.0316 µM
[23] = second compound 1 µM, first compound 0.1 µM
[24] = second compound 3.16 µM, first compound 0.000316 µM
[25] = second compound 3.16 µM, first compound 0.001 µM
[26] = second compound 3.16 µM, first compound 0.00316 µM
[27] = second compound 3.16 µM, first compound 0.01 µM
[28] = second compound 3.16 µM, first compound 0.0316 µM
[29] = second compound 3.16 µM, first compound 0.1 µM
[30] = second compound 10 µM, first compound 0.000316 µM
[31] = second compound 10 µM, first compound 0.001 µM
[32] = second compound 10 µM, first compound 0.00316 µM
[33] = second compound 10 µM, first compound 0.01 µM
[34] = second compound 10 µM, first compound 0.0316 µM
[35] = second compound 10 µM, first compound 0.1 µM
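Also: spheroids exposed to agents for one week before readout.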

CC(C)c1c(-c2ccccc2)nc2c(C#N)c[nH]n2c1=O
viability, T/C (compound 0.0316 µM): 90.9% and 92.4% | viability, T/C (compound 0.1 µM): 103% and 96.3% | viability, T/C (compound 0.316 µM): 92.6% and 89.1% | viability, T/C (compound 1 µM): 95% and 106% | viability, T/C (compound 3.16 µM): 105% and 102% | viability, T/C (compound 10 µM): 96.2% and 115% | IC50 (curve of compound): > 10000 nM

CC(C)CC(NC(=O)C(Cc1ccccc1)NC(=O)c1cnccn1)B(O)O (stereo unspecified) + NC1CCC(NC2CC2c2ccccc2)CC1
IC50 [1]: 2.62 nM | IC50 [2]: 2.93 nM | IC50 [3]: 2.18 nM | IC50 [4]: 1.95 nM | IC50 [5]: 2.83 nM | viability, T/C [6]: 105% | viability, T/C [7]: 114% | viability, T/C [8]: 38.4% | viability, T/C [9]: 0.08% | viability, T/C [10]: 1.9% | viability, T/C [11]: 2.95% | viability, T/C [12]: 110% | viability, T/C [13]: 107% | viability, T/C [14]: 46% | viability, T/C [15]: 0.06% | viability, T/C [16]: 0.03% | viability, T/C [17]: 1.83% | viability, T/C [18]: 109% | viability, T/C [19]: 100% | viability, T/C [20]: 25.9% | viability, T/C [21]: 0.26% | viability, T/C [22]: 3.69% | viability, T/C [23]: 3.26% | viability, T/C [24]: 90.9% | viability, T/C [25]: 94.5% | viability, T/C [26]: 19.2% | viability, T/C [27]: 0.04% | viability, T/C [28]: 2.68% | viability, T/C [29]: 0.1% | viability, T/C [30]: 87.7% | viability, T/C [31]: 80.8% | viability, T/C [32]: 46.9% | viability, T/C [33]: 0.13% | viability, T/C [34]: 0.6% | viability, T/C [35]: 0.18%

NC1CC1c1ccc(-c2cccc(O)c2)cc1 (stereo unspecified)
viability, T/C (compound 0.1 µM): 91.3% and 107% | IC50 (compound alone, run of 02/01/2022): > 10000 nM

CC(C)CC(NC(=O)C(Cc1ccccc1)NC(=O)c1cnccn1)B(O)O (stereo unspecified) + NC1CC1c1ccc(-c2cccc(O)c2)cc1
IC50 [1]: 0.491 nM | IC50 [2]: 0.445 nM | IC50 [3]: 0.493 nM | IC50 [4]: 0.528 nM | IC50 [5]: 0.389 nM | viability, T/C [6]: 80.7% | viability, T/C [7]: 0.42% | viability, T/C [8]: 0.06% | viability, T/C [9]: 0.06% | viability, T/C [10]: 0.07% | viability, T/C [11]: 0.23% | viability, T/C [12]: 71% | viability, T/C [13]: 0.32% | viability, T/C [14]: 0.06% | viability, T/C [15]: 0.23% | viability, T/C [16]: 0.05% | viability, T/C [17]: 0.21% | viability, T/C [18]: 80.7% | viability, T/C [19]: 0.91% | viability, T/C [20]: 0.05% | viability, T/C [21]: 0.04% | viability, T/C [22]: 0.06% | viability, T/C [23]: 0.2% | viability, T/C [24]: 89.8% | viability, T/C [25]: 0.32% | viability, T/C [26]: 0.08% | viability, T/C [27]: 0.06% | viability, T/C [28]: 0.07% | viability, T/C [29]: 0.23% | viability, T/C [30]: 60.1% | viability, T/C [31]: 3.72% | viability, T/C [32]: 0.8% | viability, T/C [33]: 0.22% | viability, T/C [34]: 0.42% | viability, T/C [35]: 0.34%

COc1cc(C2c3cc4c(cc3C(OC3OC5COC(C)OC5C(O)C3O)C3COC(=O)C23)OCO4)cc(OC)c1O (stereo unspecified)
viability, T/C (compound 0.00949 µM): 90.2% and 92.1% | viability, T/C (compound 0.03 µM): 91.5% and 80.9% | viability, T/C (compound 0.0949 µM): 97.4% and 88.9% | viability, T/C (compound 0.3 µM): 89% and 59.5% | viability, T/C (compound 0.949 µM): 65.2% and 53.7% | viability, T/C (compound 3 µM): 59% and 47.7% | IC50 (curve of compound): > 3000 nM
